Experimental data taken from USRE48335E1, “Polymyxin derivatives as antimicrobial compounds” (priority 2014, dated 2020).
≈ marks a conversion by molar mass, not a printed value. Where two headings read alike, the source gives them in different places. Positions of bridges follow the written chain, without caps; N, C: chain ends. Non-standard residues stand in square brackets, D forms with d. Residues, ends and D or L forms follow the SMILES beside them. *: point of attachment. Benzoyl(3-Ph) = O=C(c1cccc(-c2ccccc2)c1)*; Benzoyl(4-Ph) = O=C(c1ccc(-c2ccccc2)cc1)*; Dab = NCC[C@H](N)C(=O)O; Abu = CC[C@H](N)C(=O)O; Dap = NC[C@H](N)C(=O)O; Hexanoyl = CCCCCC(=O)*; PhAc = O=C(Cc1ccccc1)*

Legend:
[1] = test system: Acinetobacter baumannii; details: for Minimum inhibitory concentration (MIC), Ab ATCC 17978 / Minimum inhibitory concentration (MIC), Ab ATCC 19606 / Minimum inhibitory concentration (MIC), Ab FADDI-AB034: TFA salt
In short: (§1)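 Using polymyxin B sulphate as comparator control, the trifluoroacetate-salt lipopeptides were assayed in CAMHB by broth microdilution to CLSI M100-S18, and MICs recorded.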

[2] = test system: Enterobacter cloacae; details: for Minimum inhibitory concentration (MIC), Ec FADDI-EC001 / Minimum inhibitory concentration (MIC), Ec FADDI-EC003 / Minimum inhibitory concentration (MIC), Ec FADDI-EC006: TFA salt
In short: as §1

[3] = test system: Klebsiella pneumoniae
In short: as §1

[4] = test system: Pseudomonas aeruginosa; details: for Minimum inhibitory concentration (MIC), Pa ATCC 27853 / Minimum inhibitory concentration (MIC), Pa FADDI-PA022 / Minimum inhibitory concentration (MIC), Pa FADDI-PA025: TFA salt
In short: as §1

[5] = test system: P. aeruginosa ATCC 27853; experiment: In vivo efficacy in mouse blood infection model (neutropenic Swiss mice); details: compound, free base 4 mg/kg intravenously 2 h after inoculation, blood at 4 h
In short: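 Activity expressed as Δlog10 CFU/mL blood, treated minus saline control, 4 h after a single 4 mg/kg (free base) i.v. dose given 2 h post-infection. Bloodstream infection from i.v. early log-phase inoculum in Swiss mice made neutropenic by i.p. cyclophosphamide on days −4 (150 mg/kg) and −1 (100 mg/kg).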

[6] = Acinetobacter baumannii ATCC 17978, broth microdilution in CAMHB
[7] = Acinetobacter baumannii ATCC 19606, broth microdilution in CAMHB
[8] = Acinetobacter baumannii FADDI-AB034, broth microdilution in CAMHB
[9] = Enterobacter cloacae FADDI-EC001, broth microdilution in CAMHB
[10] = Enterobacter cloacae FADDI-EC003, broth microdilution in CAMHB
[11] = Enterobacter cloacae FADDI-EC006, broth microdilution in CAMHB
[12] = Pseudomonas aeruginosa ATCC 27853, broth microdilution in CAMHB
[13] = Pseudomonas aeruginosa FADDI-PA022, broth microdilution in CAMHB
[14] = Pseudomonas aeruginosa FADDI-PA025, broth microdilution in CAMHB

| SMILES | MIC ([1]; A. baumannii ATCC 19606) | Minimum inhibitory concentration (MIC), Ab ATCC 17978 [1, 6] | Minimum inhibitory concentration (MIC), Ab ATCC 19606 [1, 7] | Minimum inhibitory concentration (MIC), Ab FADDI-AB034 [1, 8] | Minimum inhibitory concentration (MIC), Ec FADDI-EC001 [2, 9] | Minimum inhibitory concentration (MIC), Ec FADDI-EC003 [2, 10] | Minimum inhibitory concentration (MIC), Ec FADDI-EC006 [2, 11] | MIC ([3]; K. pneumoniae FADDI-KP032) | MIC ([4]; P. aeruginosa ATCC 27853) | Minimum inhibitory concentration (MIC), Pa ATCC 27853 [4, 12] | Minimum inhibitory concentration (MIC), Pa FADDI-PA022 [4, 13] | Minimum inhibitory concentration (MIC), Pa FADDI-PA025 [4, 14] | Δ log (Treated-Control at 4 h) [5] | also measured |
| --- | --- | --- | --- | --- | --- | --- | --- | --- | --- | --- | --- | --- | --- | --- |
| CC[C@@H]1NC(=O)[C@@H](CC(C)C)NC(=O)[C@H](CCN)NC(=O)[C@@H](NC(=O)[C@H](CN)NC(=O)[C@@H](NC(=O)[C@H](CCN)NC(=O)c2ccc(-c3ccccc3)cc2)[C@@H](C)O)CCNC(=O)[C@H]([C@@H](C)O)NC(=O)[C@H](CCN)NC(=O)[C@H](CCN)NC1=O [Compound 142] ({Benzoyl(4-Ph)}-[Dab]T[Dap][Dab][Dab][dL][Abu][Dab][Dab]T; lactam 4-C) | 1 mg/L (≈ 0.857 µM) | 0.5 mg/L | 1 mg/L | 0.25 mg/L | 0.25 mg/L | 1 mg/L | 0.5 mg/L | 0.25 mg/L (≈ 0.214 µM) | 1 mg/L (≈ 0.857 µM) | 1 mg/L | 1 mg/L | 1 mg/L | −3.89 log10 CFU/mL |  |
| CCCCCC(=O)N[C@@H](CCN)C(=O)N[C@H](C(=O)N[C@H](CO)C(=O)N[C@H]1CCNC(=O)[C@H]([C@@H](C)O)NC(=O)[C@H](CCN)NC(=O)[C@H](CCN)NC(=O)[C@H]([C@@H](C)O)NC(=O)[C@@H](CC(C)C)NC(=O)[C@H](CCN)NC1=O)[C@@H](C)O [Compound 8] (Hexanoyl-[Dab]T[dS][Dab][Dab][dL]T[Dab][Dab]T; lactam 4-C) |  |  |  |  |  |  |  |  |  |  |  |  | −0.05 log10 CFU/mL | MIC [1]: 2 mg/L (≈ 1.81 µM); Minimum inhibitory concentration, Ab A ATCC 17978 [1]: 2 mg/L (≈ 1.81 µM); Minimum inhibitory concentration, Ab ATCC 19606 [1]: 2 mg/L (≈ 1.81 µM); Minimum inhibitory concentration, Ab FADDI-AB034 [1]: 1 mg/L (≈ 0.907 µM); Minimum inhibitory concentration, Ec FADDI-EC001 [2]: 0.25 mg/L (≈ 0.227 µM); Minimum inhibitory concentration, Ec FADDI-EC003 [2]: 0.5 mg/L (≈ 0.454 µM); Minimum inhibitory concentration, Ec FADDI-EC006 [2]: 0.25 mg/L (≈ 0.227 µM); MIC [3]: 1 mg/L (≈ 0.907 µM); MIC [4]: 4 mg/L (≈ 3.63 µM); Minimum inhibitory concentration, Pa ATCC 27853 [4]: 4 mg/L (≈ 3.63 µM); Minimum inhibitory concentration, Pa FADDI-PA022 [4]: 8 mg/L (≈ 7.26 µM); Minimum inhibitory concentration, Pa FADDI-PA025 [4]: >32 mg/L |
| CC(C)C[C@H]1NC(=O)[C@H](CCN)NC(=O)[C@@H](NC(=O)[C@H](CCN)NC(=O)[C@@H](NC(=O)[C@H](CCN)NC(=O)Cc2ccccc2)[C@@H](C)O)CCNC(=O)[C@H]([C@@H](C)O)NC(=O)[C@H](CCN)NC(=O)[C@H](CCN)NC(=O)[C@H]([C@@H](C)O)NC1=O [Compound 30] (PhAc-[Dab]T[Dab][Dab][Dab][dL]T[Dab][Dab]T; lactam 4-C) | 32 mg/L (≈ 28.2 µM) |  |  |  |  |  |  | 1 mg/L (≈ 0.881 µM) | 1 mg/L (≈ 0.881 µM) |  |  |  | −0.39 log10 CFU/mL | Minimum inhibitory concentration, Ab A ATCC 17978 [1, 6]: 32 mg/L (≈ 28.2 µM); Minimum inhibitory concentration, Ab ATCC 19606 [1, 7]: 32 mg/L (≈ 28.2 µM); Minimum inhibitory concentration, Ab FADDI-AB034 [1, 8]: 32 mg/L (≈ 28.2 µM); Minimum inhibitory concentration, Ec FADDI-EC001 [2, 9]: 2 mg/L (≈ 1.76 µM); Minimum inhibitory concentration, Ec FADDI-EC003 [2, 10]: 2 mg/L (≈ 1.76 µM); Minimum inhibitory concentration, Ec FADDI-EC006 [2, 11]: 4 mg/L (≈ 3.52 µM); Minimum inhibitory concentration, Pa ATCC 27853 [4, 12]: 1 mg/L (≈ 0.881 µM); Minimum inhibitory concentration, Pa FADDI-PA022 [4, 13]: 1 mg/L (≈ 0.881 µM); Minimum inhibitory concentration, Pa FADDI-PA025 [4, 14]: >32 mg/L |
| CC[C@@H]1NC(=O)[C@@H](CC(C)C)NC(=O)[C@H](CCN)NC(=O)[C@@H](NC(=O)[C@H](CN)NC(=O)[C@@H](NC(=O)[C@H](CCN)NC(=O)c2cccc(-c3ccccc3)c2)[C@@H](C)O)CCNC(=O)[C@H]([C@@H](C)O)NC(=O)[C@H](CCN)NC(=O)[C@H](CCN)NC1=O [Compound 138] ({Benzoyl(3-Ph)}-[Dab]T[Dap][Dab][Dab][dL][Abu][Dab][Dab]T; lactam 4-C) | 1 mg/L (≈ 0.857 µM) | 0.5 mg/L | 1 mg/L | 0.5 mg/L | 0.5 mg/L | 1 mg/L | 0.5 mg/L | 0.5 mg/L (≈ 0.428 µM) | 1 mg/L (≈ 0.857 µM) | 1 mg/L | 2 mg/L | 1 mg/L | −2.98 log10 CFU/mL |  |
